Reference: patent publication US8158628B2, “Sulfonylated 1,2,3,4-tetrahydropyrrolo[1,2-a]pyrazine compounds and their use as pharmaceuticals” (Gruenenthal GmbH, priority 2009, dated 2012)

Assays:
B1R of the rat = molecular target: T1, B1R of the rat (Rattus norvegicus, UniProt P97583); test: FLIPR Ca2+ functional assay, B1R antagonism, rat B1R in CHO K1 cells; assay type: cell-based; settings: test substance 10 μM; rB1R CHO K1 cells; agonist Des-Arg9 bradykinin at EC80; % of maximum achievable inhibition
T1 construct: expressed in transfected cells; host or cells: CHO K1 cells (Chinese hamster ovary), stably transfected
T1 sequence (P97583 1-337): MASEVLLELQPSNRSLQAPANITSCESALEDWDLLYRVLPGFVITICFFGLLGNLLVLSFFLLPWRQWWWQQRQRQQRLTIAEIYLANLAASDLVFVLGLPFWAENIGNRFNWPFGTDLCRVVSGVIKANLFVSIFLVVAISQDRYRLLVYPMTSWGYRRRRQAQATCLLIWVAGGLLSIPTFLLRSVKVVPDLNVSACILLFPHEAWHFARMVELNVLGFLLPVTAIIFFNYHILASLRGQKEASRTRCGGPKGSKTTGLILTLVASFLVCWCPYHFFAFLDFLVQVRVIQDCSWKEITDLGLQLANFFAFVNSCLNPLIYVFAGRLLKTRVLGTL
Procedure, shortened: (§1)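 Stably transfected CHO K1 cells loaded with Fluo-4; Ca2+ fluorescence read on FLIPR (ex 488/em 540 nm). Compound preincubated 10-20 min, then agonist at EC80: Lys-Des-Arg9 bradykinin (human) or Des-Arg9 bradykinin (rat). % inhibition vs maximal inhibition; IC50 from concentration series, n=2-3, N>=2.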

human B1R = molecular target: T2, human B1R (Homo sapiens, UniProt P46663); test: FLIPR Ca2+ functional assay, B1R antagonism, human B1R in CHO K1 cells; assay type: cell-based; settings: test substance 10 μM; hB1R CHO K1 cells; agonist Lys-Des-Arg9 bradykinin at EC80; % of maximum achievable inhibition
T2 construct: expressed in transfected cells; host or cells: CHO K1 cells (Chinese hamster ovary), stably transfected
T2 sequence (P46663 1-353): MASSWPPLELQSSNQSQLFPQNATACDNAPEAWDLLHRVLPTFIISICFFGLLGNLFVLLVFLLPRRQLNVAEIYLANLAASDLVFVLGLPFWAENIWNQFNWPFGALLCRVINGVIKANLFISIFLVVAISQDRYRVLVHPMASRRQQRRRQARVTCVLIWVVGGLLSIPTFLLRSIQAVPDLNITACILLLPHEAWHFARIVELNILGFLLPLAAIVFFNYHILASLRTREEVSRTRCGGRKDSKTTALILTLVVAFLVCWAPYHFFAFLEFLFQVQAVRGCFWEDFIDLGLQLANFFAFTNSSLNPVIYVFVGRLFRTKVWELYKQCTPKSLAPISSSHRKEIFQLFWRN
Procedure, shortened: as §1

inhibition at 10 µM (B1R of the rat)	inhibition at 10 µM (human B1R)	Compound
101%	99.8%	Cc1ccc(S(=O)(=O)N2CCn3cccc3C2CC(=O)NC2CCCc3cc(CN4CCCCC4)ccc32)cc1 (stereo not shown) [Example 80, N-[6-(Piperidin-1-yl-methyl)-1,2,3,4-tetrahydro-naphthalen-1-yl]-2-[2-(p-tolylsulfonyl)-1,2,3,4-tetrahydro-pyrrolo[1,2-a]pyrazin-1-yl]-acetamide]
103%	99.2%	COc1cc(C)c(S(=O)(=O)N2CCn3cccc3C2COCC(=O)N2CCC(c3ccncc3)CC2)c(C)c1 (stereo not shown) [Example 34, 2-[[2-[(4-Methoxy-2,6-dimethyl-phenyl)sulfonyl]-1,2,3,4-tetrahydro-pyrrolo[1,2-a]pyrazin-1-yl]-methoxy]-1-(4-pyridin-4-yl-piperidin-1-yl)-ethanone]
94.9%	99.6%	COc1cc(C)c(S(=O)(=O)N2CCn3cccc3C2COCC(=O)N2CCC(N3CC4CC3CN4C)CC2)c(C)c1 (stereo not shown) [Example 40, 2-[[2-[(4-Methoxy-2,6-dimethyl-phenyl)sulfonyl]-1,2,3,4-tetrahydro-pyrrolo[1,2-a]pyrazin-1-yl]-methoxy]-1-[4-(3-methyl-3,6-diazabicyclo[2.2.1]heptan-6-yl)-piperidin-1-yl]-ethanone]
104%	99.7%	CNCc1ccc2c(c1)CCC(NC(=O)CC1c3cccn3CCN1S(=O)(=O)c1ccc3cc(OC)ccc3c1)C2 (stereo not shown) [Example 137, 2-[2-[(6-Methoxy-naphthalen-2-yl)sulfonyl]-1,2,3,4-tetrahydro-pyrrolo[1,2-a]pyrazin-1-yl]-N-[6-(methylamino-methyl)-1,2,3,4-tetrahydro-naphthalen-2-yl]-acetamide]
104%	99.4%	CNCc1ccc2c(c1)CCCC2NC(=O)CC1c2cccn2CCN1S(=O)(=O)c1ccc(C)cc1 (stereo not shown) [Example 133, N-[6-(Methylamino-methyl)-1,2,3,4-tetrahydro-naphthalen-1-yl]-2-[2-(p-tolylsulfonyl)-1,2,3,4-tetrahydro-pyrrolo[1,2-a]pyrazin-1-yl]-acetamide]
99.6%	100%	COc1ccc2cc(S(=O)(=O)N3CCn4cccc4C3CC(=O)NC3CCCc4cc(CNC(C)(C)C)ccc43)ccc2c1 (stereo not shown) [Example 114, N-[6-[(tert-Butylamino)-methyl]-1,2,3,4-tetrahydro-naphthalen-1-yl]-2-[2-[(6-methoxy-naphthalen-2-yl)sulfonyl]-1,2,3,4-tetrahydro-pyrrolo[1,2-a]pyrazin-1-yl]-acetamide]
99.5%	99.8%	Cc1ccc(S(=O)(=O)N2CCn3cccc3C2CC(=O)NC2CCc3cc(CNC(C)(C)C)ccc3C2)cc1Cl (stereo not shown) [Example 60, N-[6-[(tert-Butylamino)-methyl]-1,2,3,4-tetrahydro-naphthalen-2-yl]-2-[2-[(3-chloro-4-methyl-phenyl)sulfonyl]-1,2,3,4-tetrahydro-pyrrolo[1,2-a]pyrazin-1-yl]-acetamide]
101%	99.9%	COc1ccc2cc(S(=O)(=O)N3CCn4cccc4C3CC(=O)NC3CCc4cc(CN5CCCC5)ccc4C3)ccc2c1 (stereo not shown) [Example 94, 2-[2-[(6-Methoxy-naphthalen-2-yl)sulfonyl]-1,2,3,4-tetrahydro-pyrrolo[1,2-a]pyrazin-1-yl]-N-[6-(pyrrolidin-1-yl-methyl)-1,2,3,4-tetrahydro-naphthalen-2-yl]-acetamide]
101%	99.8%	COc1ccc2cc(S(=O)(=O)N3CCn4cccc4C3CC(=O)NC3CCc4cc(CN5CCN(C)CC5)ccc4C3)ccc2c1 (stereo not shown) [Example 99, 2-[2-[(6-Methoxy-naphthalen-2-yl)sulfonyl]-1,2,3,4-tetrahydro-pyrrolo[1,2-a]pyrazin-1-yl]-N-[6-[(4-methyl-piperazin-1-yl)-methyl]-1,2,3,4-tetrahydro-naphthalen-2-yl]-acetamide]
100%	100%	COc1cc(C)c(S(=O)(=O)N2CCn3cccc3C2COCC(=O)N2CCC(Oc3ccncc3)CC2)c(C)c1 (stereo not shown) [Example 13, 2-((2-(4-Methoxy-2,6-dimethylphenylsulfonyl)-1,2,3,4-tetrahydropyrrolo[1,2-a]pyrazin-1-yl)methoxy)-1-(4-(pyridin-4-yloxy)piperidin-1-yl)ethanone]
103%	99.9%	COc1ccc2cc(S(=O)(=O)N3CCn4cccc4C3CC(=O)NC3CCCc4cc(CN(C)C(C)(C)C)ccc43)ccc2c1 (stereo not shown) [Example 104, N-[6-[(tert-Butyl-methyl-amino)-methyl]-1,2,3,4-tetrahydro-naphthalen-1-yl]-2-[2-[(6-methoxy-naphthalen-2-yl)sulfonyl]-1,2,3,4-tetrahydro-pyrrolo[1,2-a]pyrazin-1-yl]-acetamide]
103%	99.5%	COc1ccc2cc(S(=O)(=O)N3CCn4cccc4C3CC(=O)N(C)C3CCc4cc(CN5CCCCC5)ccc4C3)ccc2c1 (stereo not shown) [Example 43, 2-[2-[(6-Methoxy-naphthalen-2-yl)sulfonyl]-1,2,3,4-tetrahydro-pyrrolo[1,2-a]pyrazin-1-yl]-N-methyl-N-[6-(piperidin-1-yl-methyl)-1,2,3,4-tetrahydro-naphthalen-2-yl]-acetamide]
98.8%	73.6%	COc1ccc2cc(S(=O)(=O)N3CCn4cccc4C3CC(=O)NC3CCCc4cc(CN5CCCc6ccccc65)ccc43)ccc2c1 (stereo not shown) [Example 130, 2-[2-[(6-Methoxy-naphthalen-2-yl)sulfonyl]-1,2,3,4-tetrahydro-pyrrolo[1,2-a]pyrazin-1-yl]-N-[6-(1,2,3,4-tetrahydro-quinolin-1-yl-methyl)-1,2,3,4-tetrahydro-naphthalen-1-yl]-acetamide]
100%	99.9%	Cc1ccc(S(=O)(=O)N2CCn3cccc3C2CC(=O)NC2CCc3cc(CN4CCCC4)ccc3C2)cc1Cl (stereo not shown) [Example 49, 2-[2-[(3-Chloro-4-methyl-phenyl)sulfonyl]-1,2,3,4-tetrahydro-pyrrolo[1,2-a]pyrazin-1-yl]-N-[6-(pyrrolidin-1-yl-methyl)-1,2,3,4-tetrahydro-naphthalen-2-yl]-acetamide]
103%	99.8%	COc1ccc2cc(S(=O)(=O)N3CCn4cccc4C3CC(=O)NC3CCCc4cc(CN5CCCCC5)ccc43)ccc2c1 (stereo not shown) [Example 128, 2-[2-[(6-Methoxy-naphthalen-2-yl)sulfonyl]-1,2,3,4-tetrahydro-pyrrolo[1,2-a]pyrazin-1-yl]-N-[6-(piperidin-1-yl-methyl)-1,2,3,4-tetrahydro-naphthalen-1-yl]-acetamide]
102%	99.8%	COc1ccc2cc(S(=O)(=O)N3CCn4cccc4C3CC(=O)NC3CCc4cc(CN(C)C(C)(C)C)ccc4C3)ccc2c1 (stereo not shown) [Example 97, N-[6-[(tert-Butyl-methyl-amino)-methyl]-1,2,3,4-tetrahydro-naphthalen-2-yl]-2-[2-[(6-methoxy-naphthalen-2-yl)sulfonyl]-1,2,3,4-tetrahydro-pyrrolo[1,2-a]pyrazin-1-yl]-acetamide]
102%	99.9%	COc1cc(C)c(S(=O)(=O)N2CCn3cccc3C2COCC(=O)N(C)CCC2CCN(c3ccncc3)CC2)c(C)c1 (stereo not shown) [Example 7]
101%	99.9%	Cc1ccc(S(=O)(=O)N2CCn3cccc3C2CC(=O)NC2CCCc3cc(CN(C)C)ccc32)cc1Cl (stereo not shown) [Example 102, 2-[2-[(3-Chloro-4-methyl-phenyl)sulfonyl]-1,2,3,4-tetrahydro-pyrrolo[1,2-a]pyrazin-1-yl]-N-[6-(dimethylaminomethyl)-1,2,3,4-tetrahydro-naphthalen-1-yl]-acetamide]
97.5%	99.8%	O=C(CC1c2cccn2CCN1S(=O)(=O)c1cccc(C(F)(F)F)c1)NC1CCCc2cc(CN3CCCC3)ccc21 (stereo not shown) [Example 86, N-[6-(Pyrrolidin-1-yl-methyl)-1,2,3,4-tetrahydro-naphthalen-1-yl]-2-[2-[[3-(trifluoromethyl)phenyl]sulfonyl]-1,2,3,4-tetrahydro-pyrrolo[1,2-a]pyrazin-1-yl]-acetamide]
74.7%	46.1%	Cc1ccc(S(=O)(=O)N2CCn3cccc3C2CC(=O)NC2CCCc3cc(CN4CCCc5ccccc54)ccc32)cc1 (stereo not shown) [Example 129, 2-[2-(p-Tolylsulfonyl)-1,2,3,4-tetrahydro-pyrrolo[1,2-a]pyrazin-1-yl]-N-[6-(1,2,3,4-tetrahydro-quinolin-1-yl-methyl)-1,2,3,4-tetrahydro-naphthalen-1-yl]-acetamide]
